What was measured:
Histone deacetylase 1 = Histone deacetylase 1 (Homo sapiens, UniProt Q13547)
[1] = biological target: T1, Protein deacetylase HDAC6 (Homo sapiens, UniProt Q9UBN7)
T1 sequence (Q9UBN7 whole entry): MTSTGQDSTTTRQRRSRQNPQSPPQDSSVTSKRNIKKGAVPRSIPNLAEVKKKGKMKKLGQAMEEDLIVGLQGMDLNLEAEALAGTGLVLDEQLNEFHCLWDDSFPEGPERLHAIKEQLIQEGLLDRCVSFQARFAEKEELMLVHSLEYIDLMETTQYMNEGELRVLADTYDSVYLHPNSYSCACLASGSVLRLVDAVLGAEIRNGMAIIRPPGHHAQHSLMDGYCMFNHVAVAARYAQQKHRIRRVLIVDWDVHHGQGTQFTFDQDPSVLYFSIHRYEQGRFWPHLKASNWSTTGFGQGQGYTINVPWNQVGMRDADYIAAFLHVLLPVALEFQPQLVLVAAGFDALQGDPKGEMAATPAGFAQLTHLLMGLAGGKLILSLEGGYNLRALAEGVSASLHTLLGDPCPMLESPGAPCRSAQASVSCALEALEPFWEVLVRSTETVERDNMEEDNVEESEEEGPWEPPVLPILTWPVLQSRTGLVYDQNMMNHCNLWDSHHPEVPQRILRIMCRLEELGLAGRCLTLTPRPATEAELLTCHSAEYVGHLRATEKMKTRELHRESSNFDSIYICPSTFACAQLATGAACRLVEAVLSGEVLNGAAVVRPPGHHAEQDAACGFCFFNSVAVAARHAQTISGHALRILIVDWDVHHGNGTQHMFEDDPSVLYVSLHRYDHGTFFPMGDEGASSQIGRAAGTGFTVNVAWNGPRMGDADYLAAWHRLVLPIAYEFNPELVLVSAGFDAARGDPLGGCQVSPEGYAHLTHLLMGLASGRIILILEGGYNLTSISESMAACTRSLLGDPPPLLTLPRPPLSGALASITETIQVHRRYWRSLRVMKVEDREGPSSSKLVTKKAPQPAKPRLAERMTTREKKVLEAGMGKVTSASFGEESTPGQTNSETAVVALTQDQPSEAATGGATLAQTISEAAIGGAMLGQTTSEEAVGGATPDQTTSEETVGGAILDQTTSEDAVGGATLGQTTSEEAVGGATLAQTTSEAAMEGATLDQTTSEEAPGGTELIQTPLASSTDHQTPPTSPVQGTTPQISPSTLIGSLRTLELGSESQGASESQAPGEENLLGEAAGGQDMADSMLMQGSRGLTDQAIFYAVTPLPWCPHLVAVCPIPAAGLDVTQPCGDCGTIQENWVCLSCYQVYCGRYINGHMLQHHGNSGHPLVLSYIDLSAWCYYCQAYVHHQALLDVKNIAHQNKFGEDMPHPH

Chain of Histone deacetylase 1 (Q13547 whole entry): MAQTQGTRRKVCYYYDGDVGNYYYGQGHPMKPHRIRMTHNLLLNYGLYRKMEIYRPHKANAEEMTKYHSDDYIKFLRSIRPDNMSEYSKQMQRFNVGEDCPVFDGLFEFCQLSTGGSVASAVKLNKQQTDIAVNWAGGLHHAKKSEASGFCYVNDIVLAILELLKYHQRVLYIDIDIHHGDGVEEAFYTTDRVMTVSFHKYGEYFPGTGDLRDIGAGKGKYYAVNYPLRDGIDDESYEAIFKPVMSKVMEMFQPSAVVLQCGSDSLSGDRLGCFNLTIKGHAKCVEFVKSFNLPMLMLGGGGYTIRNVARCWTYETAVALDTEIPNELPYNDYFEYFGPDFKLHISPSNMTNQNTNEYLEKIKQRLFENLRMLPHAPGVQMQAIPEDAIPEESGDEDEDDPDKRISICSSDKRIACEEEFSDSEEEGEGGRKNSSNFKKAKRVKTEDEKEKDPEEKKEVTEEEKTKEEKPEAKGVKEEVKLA

| Structure (SMILES) | IC50 (Histone deacetylase 1) [nM] | IC50 [1] [nM] |
| --- | --- | --- |
| CCCCN(Cc1ccc(C(=O)NO)cc1)C(=O)Nc1cccc(N(C)C)c1 | 604 | 6.12 |
| O=C(NCc1ccc(C(=O)NO)cc1)Nc1ccc(CO)cc1 | 1060 | 8.3 |

— ChEMBL document CHEMBL5726379, “Selective histone deactylase 6 inhibitors” (2017)
